pIC50: −log10 of the molar value.
How the values were obtained:
BCL-XL/BAK = target: T1, BCL-XL/BAK (Homo sapiens, UniProt Q07817); assay: Screening on inhibitory activity for BCL-XL/BAK binding (Cisbio HTRF kit)
T1 construct: purchased Cisbio
In short: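 Tag1-BCL-XL and Tag2-BAK (2 nM and 80 nM before mixing) were combined with compounds at final 2000–0.488 nM (4-fold, 7 points, duplicates) for 15 min at 25° C. Eu3+ anti-Tag1 and XL665 anti-Tag2 were then added for ≥2 h at 25° C. HTRF (620/665 nm) gave IC50 by four-parameter fit.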

[1] = In vitro stability in rat liver microsomes; assay type: in vitro ADME; conditions: 1 μM
Protocol: (§1) Experimental Example 3: In Vitro Stability in Liver Microsome
(§2) 300 μL of the final incubation system contains 30 μL of liver microsomes (protein concentration: 5 mg/mL), 30 μL of NADPH+MgCl2, 3 μL of the test compound (in acetonitrile), and 237 μL of PBS buffer (pH 7.4), wherein the proportion of the organic solvent (acetonitrile) is 1% (volume ratio). Two duplicate samples were prepared for each specie (mouse, rat and human), and each sample was 0.3 mL. Each tube which was added with 270 μL of a mixed solution of substrate and enzyme, and NADPH, after being pre-incubated at 37° C. for 5 min, was added with 30 μL of NADPH+MgCl2 and mixed. Then 50 μL of the mixture was taken at 0 min, 15 min, 30 min and 60 min, and added with 300 μL of glacial acetonitrile containing an internal standard to terminate the reaction.
(§3) 50 μL of the incubated sample was added with 300 μL of glacial acetonitrile containing an internal standard (20 ng/mL diazepam) for precipitation, vortexed for 5 min, and centrifuged (13,000 rpm, 20° C.) for 10 min. 70 μL of supernatant was taken and diluted with 70 μL of ultrapure water. After being mixed well, 1 μL of the resulting sample was injected for analysis.

[2] = In vitro stability in mouse liver microsomes; assay type: in vitro ADME; conditions: 1 μM
Protocol: as §1, §2, §3

BCL-2/BAK = target: T2, BCL-2/BAK (Homo sapiens, UniProt P10415); assay: Screening on inhibitory activity for BCL-2/BAK binding (Cisbio HTRF kit)
T2 construct: purchased Cisbio
In short: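 HTRF competition assay: Tag1-BCL-2 and Tag2-BAK working dilutions were 5 nM and 120 nM. Compound (200–0.0488 nM final, 4-fold, 7 points, duplicates) was incubated with the proteins for 15 min at 25 °C, then with Eu-cryptate/XL665 antibodies for ≥2 h at 25 °C. IC50 was derived from a four-parameter fit.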

RS4;11 cells = assay: Inhibitory effect on proliferation of RS4;11 cells (CCK-8); assay type: cell-based, human; conditions: Homo sapiens, RS4-11, 72 h
In short: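 RS4;11 cells were seeded at 1×10^5 cells/mL in RPMI with 5% FBS and incubated 24 h at 37° C, 5% CO2 before compound addition in duplicate. Inhibition was calculated against untreated and blank controls. IC50 came from a four-parameter fit of log concentration versus inhibition.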

[3] = test system: human platelet Caspase-3 activity; assay: Human platelet toxicity experiment (Caspase-3 activity assay); assay type: cell-based; conditions: 90 min, data normalized, reference ABT-199
Protocol: Experimental Example 6: Human Platelet Toxicity Experiment (Caspase-3 Activity Assay)
10 mL of human whole blood was collected using a heparin sodium anticoagulation tube, mixed well by turning upside down, and centrifuged at 90 g for 10 min. The supernatant was collected and centrifuged at 1950 g for 10 min. The supernatant was discarded, and the residue was resuspended in 4 mL of PBS, and centrifuged at 1190 g for 5 min, and the procedure was repeated once. The supernatant was discarded, and the platelets were resuspended in PBS and adjusted to the density of 2-3×10^8 cells/mL. Cells were seeded into a 96-well plate at a density of 2-3×10^7 cells/mL and at 100 μL/well. 50 μL of control buffer was added to each negative control well, and 50 μL of compound at a corresponding concentration was added to each compound well, so that the final concentration of the compound was 2.5 μM, 2 μM, 1 μM or 0.5 μM, followed by incubation in an incubator at 37° C. for 90 min. The liquids in the 96-well plate were transferred to 1.5 mL centrifuge tubes, respectively. The tubes were centrifuged at 4° C. and 6000 g for 5 min, and placed on ice for later use after the supernatant was discarded. 5× lysis buffer was diluted into 1× lysis buffer with water in the kit, and protease inhibitor cocktail was added at a 1:200 ratio to prepare a lysis mixture for later use. 40 μL of lysis mixture was added to each centrifuge tube, and the platelets at the bottom were resuspended using a pipette. The suspension was lysed on ice for 15-20 min and centrifuged at 4° C. and 14,000 g for 10 min. The sample was sub-packaged for later use. 10× assay buffer was diluted into 1× assay buffer with water in the kit, and substrate Ac-DEVD-AMC was added at a 1:600 ratio to prepare a reaction mixture. 5 μL of assay buffer and 40 μL of reaction mixture were added to each blank control well. 5 μL of control platelet lysate and 40 μL of reaction mixture were added to each negative control well. 5 μL of platelet lysate and 40 μL of reaction mixture were added to each compound well. In this procedure, 40 μL of reaction mixture was added at last. The resulting mixture was mixed gently, and the plate was read by a PE Envision multi-functional microplate reader (excitation: 360 nm, emission: 460 nm) once every 10 min for 6 times. Caspase-3 activity was determined based on the intensity of the released AMC fluorescence, that is the slope of the fitted line to which each well corresponds represents Caspase activity (all data were normalized and the reference was ABT-199).

[4] = In vitro stability in human liver microsomes; assay type: in vitro ADME; conditions: 1 μM
Protocol: as §1, §2, §3

T1 sequence (Q07817 whole entry, species assumed): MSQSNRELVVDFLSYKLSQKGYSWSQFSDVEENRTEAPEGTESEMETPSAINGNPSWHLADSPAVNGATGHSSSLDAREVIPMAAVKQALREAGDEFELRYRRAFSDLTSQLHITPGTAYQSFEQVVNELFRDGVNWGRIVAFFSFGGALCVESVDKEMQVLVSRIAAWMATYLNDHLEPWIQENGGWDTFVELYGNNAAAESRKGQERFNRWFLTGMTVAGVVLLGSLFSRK
T2 sequence (P10415 whole entry, species assumed): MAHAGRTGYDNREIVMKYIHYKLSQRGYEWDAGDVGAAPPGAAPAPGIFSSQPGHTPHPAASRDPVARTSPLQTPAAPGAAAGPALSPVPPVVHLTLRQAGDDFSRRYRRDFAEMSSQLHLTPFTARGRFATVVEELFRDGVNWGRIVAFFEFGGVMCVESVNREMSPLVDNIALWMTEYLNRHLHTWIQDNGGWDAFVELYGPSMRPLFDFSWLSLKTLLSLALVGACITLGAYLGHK

Row | Compound | pIC50 (BCL-XL/BAK) | Rat Residual content after 60 min (%) [1] | Mouse Residual content after 60 min (%) [2] | pIC50 (BCL-2/BAK) | pIC50 (RS4;11 cells) | human platelet Caspase-3 activity, Slope ([3]; compound concentration 0.5 μM) | human platelet Caspase-3 activity, Slope ([3]; compound concentration 2 μM) | Human Residual content after 60 min (%) [4] | human platelet Caspase-3 activity, Slope ([3]; compound concentration 1 μM)
1 | COCC(=O)N1CCO[C@H](CNc2ccc(S(=O)(=O)NC(=O)c3ccc(N4CCN(CC5=C(c6ccc(C(F)(F)F)cc6Cl)CC(C)(C)CC5)CC4)cc3Oc3cnc4[nH]ccc4c3)cc2[N+](=O)[O-])C1 [Compound 11-1] | 6.85 | 66.3% | 62.9% | 8.80 | 8.60 | 0.42 | 0.57 | 67.4% | 
2 | CC1(C)CCC(CN2CCN(c3ccc(C(=O)NS(=O)(=O)c4ccc(NCC5CN(S(C)(=O)=O)CCO5)c([N+](=O)[O-])c4)c(Oc4cnc5[nH]ccc5c4)c3)CC2)=C(c2ccc(C(F)(F)F)cc2Cl)C1 (centres unmarked) [Compound 12-1, 4-(4-{[2-(2-chloro-4-trifluoromethylphenyl)-4,4-dimethylcyclohex-1-enyl]methyl}-piperazin-1-yl)-N-({3-nitro-4-[((4-methylsulfonylmorpholin-2-yl)methyl)amino]phenyl}sulfonyl)-2-(1H-pyrrolo[2,3-b]pyridin-5-yloxy)-benzamide] | 6.95 | 80.2% | 93.4% | 8.85 | 8.77 | 0.27 | 0.33 | 91.3% | 
3 | CC1(C)CCC(CN2CCN(c3ccc(C(=O)NS(=O)(=O)c4ccc(NCC5CCOCC5)c([N+](=O)[O-])c4)c(Oc4cnc5[nH]ccc5c4)c3)CC2)=C(c2ccc(C(F)(F)F)c(F)c2)C1 [Compound 6-1, 4-(4-{[2-(3-fluoro-4-trifluoromethylphenyl)-4,4-dimethylcyclohex-1-enyl]methyl}-piperazin-1-yl)-N-({3-nitro-4-[(tetrahydro-2H-pyran-4-ylmethyl)amino]phenyl}sulfonyl)-2-(1H-pyrrolo[2,3-b]pyridin-5-yloxy)-benzamide] | 5.71 | 61.2% | 65.3% | 8.24 | 8.62 |  |  | 65.9% | 0.45
4 | CC(C)C(=O)N1CCOC(CNc2ccc(S(=O)(=O)NC(=O)c3ccc(N4CCN(CC5=C(c6ccc(C(F)(F)F)cc6Cl)CC(C)(C)CC5)CC4)cc3Oc3cnc4[nH]ccc4c3)cc2[N+](=O)[O-])C1 (centres unmarked) [Compound 10-1, 4-(4-{[2-(2-chloro-4-trifluoromethylphenyl)-4,4-dimethylcyclohex-1-enyl]methyl}-piperazin-1-yl)-N-({3-nitro-4-[((4-isobutyrylmorpholin-2-yl)methyl)amino]phenyl}sulfonyl)-2-(1H-pyrrolo[2,3-b]pyridin-5-yloxy)-benzamide] | 6.71 | 69.9% | 30.1% | 8.55 | 8.25 |  |  | 78.0% | 

Source: patent publication US20250257064A1, “TRIFLUOROMETHYL-SUBSTITUTED SULFONAMIDE AS BCL-2-SELECTIVE INHIBITOR” (Chia Tai Tianqing Pharmaceutical Group Co., Ltd., priority 2018, published 2025)
